# Data published in US20240382508A1, “REGENERATIVE AGENT FOR BONE TISSUE AND LUNG TISSUE, AND PHARMACEUTICAL COMPOSITION FOR REGENERATING BONE TISSUE AND LUNG TISSUE” (NIIGATA UNIVERSITY, priority 2021, published 2024).
# Key:
# [1] = test system: iCell mesenchymal stem cells; assay: bone nodule measurement in mesenchymal stem cells induced from human iPS cells; format: cell-based; conditions: 10 μg/mL for each; 15 days; bone differentiation medium
# Description: iCell (registered trademark) mesenchymal stem cells (iCell (registered trademark) MSCs) (#01279, manufactured by Fujifilm Corporation) (1×10^4 cells/mL) obtained by inducing human mesenchymal stem cells from iPS cells, were cultured in α-MEM and a bone differentiation medium (containing 50 μg/mL ascorbic acid and 10 mM β-glycerol 2-phosphate). Ethanol (final concentration 0.1% by mass), or erythromycin, clarithromycin, or azithromycin (10 μg/mL for each) was added to the medium. The medium was exchanged every 3 days, and after 15 days, the cells were stained with Alizarin red S, followed by performing of bone nodule measurement. The results are shown in FIG. 18 (stained images) and FIG. 19 (graph showing the proportion of bone nodules). In FIG. 18 and FIG. 19, the ethanol (final concentration 0.1% by mass)-added group is a control. In FIG. 19, the symbol * indicates p≤0.05, the symbol ** indicates p≤0.01, the symbol *** indicates p≤0.001, and the symbol **** indicates p≤0.0001.
# [2] = test system: RUNX2 mRNA, Sp7 mRNA, and Bglap mRNA; assay: RT-PCR of bone regeneration genes in osteoblasts; format: cell-based, mouse; conditions: osteoblasts derived from wild-type mice
# Description: Next, the proportion (%) of bone nodules with respect to the observation region in the above-described osteoblasts was calculated from microscopic images by using image processing software (NIH Image). In addition, RNA was extracted from each of the osteoblasts by using an RNeasy Kit (manufactured by QIAGEN NV), subsequently cDNA was synthesized by using a cDNA synthesis kit (manufactured by Thermo Fisher Scientific, Inc.), and the relative expression levels of RUNX2 mRNA, Sp7 mRNA, and Bglap mRNA, which are important for bone regeneration, were checked by an RT-PCR method (Quantstudio3, Thermo Fisher Scientific, Inc.). Regarding primers, designed primers manufactured by Thermo Fisher Scientific, Inc. were used. The Assay IDs of the primers used are shown below.
# [3] = test system: experimental periodontitis model mice; assay: bone regeneration in experimental periodontitis model mice (teeth ligated with silk threads); format: in vivo, mouse
# Source text: Experimental periodontitis model mice in which teeth are ligated with silk threads are useful models for inflammatory bone destruction research because inflammations and bone resorption occur in about 10 days after the ligation. The above-described experimental periodontitis models were produced by using 6-week-old wild-type mice (N=8, male C57BL/6N mice, manufactured by CLEA Japan, Inc.), 22-month-old aging mice (N=4, male C57BL/6N mice, manufactured by CLEA Japan, Inc.), and 6-week-old DEL-1-deficient mice (N=8, male C57BL/6N mice (manufactured by CLEA Japan, Inc.), a method for producing the deficient mice was as described in Non Patent Document 1), the silk threads were removed 10 days after the ligation, a remission phase of inflammation of 5 days passed, and in the wild-type mice, new bone formation was recognized at the site of resorbed bone defect while no repair mechanism of the periodontal tissue by DEL-1 was recognized.
# The experimental periodontitis models described in Example 1 were produced by using 6-week-old wild-type mice (N=8, male C57BL/6N mice, manufactured by CLEA Japan, Inc.), 22-month-old aging mice (N=4, male C57BL/6N mice, manufactured by CLEA Japan, Inc.), and 6-week-old DEL-1-deficient mice (N=8, male C57BL/6N mice (manufactured by CLEA Japan, Inc.), a method for producing the deficient mice was as described in Non Patent Document 1), the silk threads were removed 10 days after the ligation to experimentally induce periodontitis, subsequently a bone regeneration period of 5 days was provided, and then the amount of regeneration of resorbed bone was measured using a stereomicroscope and image measurement software (manufactured by Nikon Corporation). Erythromycin (10 mg/kg) and ethanol (final concentration 0.1% by mass) were intraperitoneally administered once after the removal of the silk threads. In addition, DEL-1 (1 μg) and Fc control (0.84 μg) were directly inoculated into the gingiva after the removal of the silk threads. The results are shown in FIG. 3 (left: wild-type mice, right: DEL-1-deficient mice) and FIG. 4 (aging mice).
# Next, the experimental periodontitis model described in Example 1 was produced by using 22-month-old aging mice (N=4, male C57BL/6N mouse, manufactured by CLEA Japan, Inc.), the silk threads were removed 10 days after the ligation to experimentally induce periodontitis, subsequently a bone regeneration period of 5 days was provided, and the amount of regeneration of resorbed bone was measured using a stereomicroscope and image measurement software (manufactured by Nikon Corporation). Erythromycin (ERM) (20 mg/kg), azithromycin (AZM) (20 mg/kg), clarithromycin (CLM) (20 mg/kg), and ethanol (final concentration 0.1% by mass) as a control were intraperitoneally administered once after the removal of the silk threads. […] In addition, there was no difference in the amount of bone regeneration between the macrolide antimicrobial agent-administered groups.
# [4] = test system: bone defects in the jawbones; assay: jawbone defect regeneration in cynomolgus monkeys (microCT); format: in vivo; conditions: 200 μg at bone defect site, one month
# Description: Bone defects with a diameter of 2 cm and a depth of 2 cm were artificially produced in the jawbones of young (2 years old) and aged (10 years old) cynomolgus monkeys by using a round steel bar. Next, 200 μg of each of erythromycin, clarithromycin, and azithromycin were added to the bone defect sites. As controls, a non-administered group and a group administered with 200 μg of REGROTH (registered trademark), which has been approved as a bone regenerative agent, were also prepared. The amount of bone regeneration after one month from the administration of each drug was checked by using microCT. In FIG. 10, the symbol * indicates p<0.01.
# [5] = test system: rheumatoid arthritis model mice; assay: rheumatoid arthritis (CAIA) model, microCT of hind limb; format: in vivo, mouse
# Description: Rheumatoid arthritis (CAIA) (a collagen antibody-administered arthritis-inducing cocktail manufactured by Chondrex, Inc. was used, and the details of the production method were performed according to the protocol provided by Iwai Chemicals Co., Ltd.) was induced by using 6-week-old wild-type mice (N=4, male C57BL/6N mice, manufactured by CLEA Japan, Inc.) and 6-week-old DEL-1-deficient mice (N=4, male C57BL/6N mice (manufactured by CLEA Japan, Inc.), the method for producing the deficient mice was as described in Non Patent Document 1), and erythromycin (10 mg/kg) was intraperitoneally administered once every 3 days from the 1st day after the induction. Regarding the DEL-1-deficient mice, a group in which DEL-1 (10 μg) was administered through the tail vein once every 3 days from the 1st day after the CAIA induction, was also prepared. Nine days after the administration, the hind limb of each mouse was examined by microCT.
structure (smiles),measurement,setting,value
CC[C@H]1OC(=O)[C@H](C)[C@@H](O[C@H]2C[C@@](C)(OC)[C@@H](O)[C@H](C)O2)[C@H](C)[C@@H](O[C@@H]2O[C@H](C)C[C@H](N(C)C)[C@H]2O)[C@](C)(O)C[C@@H](C)C(=O)[C@H](C)[C@@H](O)[C@]1(C)O [erythromycin],"formation of bone nodules (FIG. 18, FIG. 19)",[1],the formation of bone nodules was recognized
same,expression of Bglap mRNA,[2],increases in the expression
same,expression of RUNX2 mRNA,[2],increases in the expression
same,expression of Sp7 mRNA,[2],increases in the expression
same,bone regeneration (FIG. 3),"[3]; 6-week-old wild-type mice, erythromycin 10 mg/kg intraperitoneally once, 5 days regeneration period",bone regeneration was recognized irrespective of the presence or absence of the administration of erythromycin
same,bone regeneration (FIG. 9),"[3]; 22-month-old aging mice, 20 mg/kg intraperitoneally once, 5 days regeneration period",bone regeneration was recognized
same,bone regeneration (FIG. 4),"[3]; 22-month-old aging mice, erythromycin 10 mg/kg intraperitoneally once or DEL-1 1 μg into the gingiva, 5 days",bone regeneration was recognized
same,bone regeneration (FIG. 3),"[3]; DEL-1-deficient mice, erythromycin 10 mg/kg intraperitoneally once or DEL-1 1 μg into the gingiva, 5 days",bone regeneration was not recognized
same,bone regeneration effect (FIG. 10),[4]; aged (10 years old) cynomolgus monkeys,a bone regeneration effect was recognized
same,bone regeneration effect (FIG. 10),[4]; young (2 years old) cynomolgus monkeys,a bone regeneration effect was recognized
same,bone destruction (FIG. 6),"[5]; DEL-1-deficient mice, erythromycin 10 mg/kg intraperitoneally or DEL-1 10 μg tail vein once every 3 days",bone destruction was not suppressed
same,bone destruction (FIG. 6),"[5]; wild-type mice, erythromycin 10 mg/kg intraperitoneally once every 3 days",bone destruction was suppressed
